Our source for the melting point values is patent publication US6399782B1, “Benzimidazole inhibitors of fructose 1,6-bisphosphatase” (Metabasis Therapeutics, Inc., priority 1997, dated 2002).

Usually melting point stands for the temperature of the solid-liquid transition.

Where a name gives a salt, the structure may show the parent alone.

As to `CC(C)Cn1c(-c2ccc(P(=O)(O)O)o2)nc2c(N)c(F)cc(CCCN(C)C)c21` (as salt: hydrobromid) [Compound 12.84, 4-Amino-5-fluoro-7-(3-N,N-dimethylpropylamine)-1-isobutyl-2-(2-phosphono-5-furanyl)benzimidazole hydrobromide salt], the melting point was 208 to 212 °C (dec.). Take `Cl.NCCCCn1c(-c2ccc(P(=O)(O)O)o2)nc2cc(Cl)ccc21` (hydrate or solvate): the melting point is 236 to 240 °C (dec.).

With `Cc1cc(C)c2nc(-c3ccc(P(=O)(O)O)o3)n(CC(C)C)c2c1` (hydrate or solvate) [Compound 13.85, 1-Isobutyl-4,6-dimethyl-2-(2-phosphono-5-furanyl)benzimidazole], the melting point was 209 to 212 °C.

The compound `Cc1cc(C)c2c(c1)nc(-c1ccc(P(=O)(O)O)o1)n2CC(C)C` (hydrate or solvate) [Compound 13.87, 1-Isobutyl-5,7-dimethyl-2-(2-phosphono-5-furanyl)benzimidazole] registered a melting point of 196 to 200 °C.

`Cc1c(C)c(C)c2c(nc(-c3ccc(P(=O)(O)O)o3)n2CC2CC2)c1C` (hydrate or solvate) [Compound 13.88, 1-Cyclopropylmethyl-4,5,6,7-tetramethyl-2-(2-phosphono-5-furanyl)benzimidazole] gave a melting point of 207 to 208 °C. In the case of `NCCCCn1c(-c2ccc(P(=O)(O)O)o2)nc2ccc(Cl)cc21` (hydrate or solvate) [Compound 13.95, 1-(4-Aminobutyl)-6-chloro-2-(2-phosphono-5-furanyl)benzimidazole], the melting point was 250 to 252 °C (dec.). With `CC(C)Cn1c(-c2ccc(P(=O)(O)O)o2)nc2c(N)c(O)ccc21` [Compound 11.1, 4-Amino-5-hydroxy-1-isobutyl-2-(2-phosphono-5-furanyl)benzimidazole], the melting point lay within 206 to 209 °C. In turn, `COc1ccc2c(nc(-c3ccc(P(=O)(O)O)o3)n2CC(C)C)c1N` [Compound 12.55, 4-Amino-5-methoxy-1-isobutyl-2-(2-phosphono-5-furanyl)benzimidazole] gave a melting point of 212 to 213 °C. As for `Nc1c(Br)c(Cl)c(Cl)c2nc(-c3ccc(P(=O)(O)O)o3)[nH]c12` [Compound 12.58, 4-Amino-5-bromo-6,7-dichloro-2-(2-phosphono-5-furanyl)benzimidazole], the melting point lay in the range of 224 to 225 °C. The compound `CCCc1ccc2c(nc(-c3ccc(P(=O)(O)O)o3)n2CC(C)C)c1N` [Compound 12.60, 4-Amino-5-propyl-1-isobutyl-2-(2-phosphono-5-furanyl)benzimidazole] came in with a melting point of 207 to 210 °C. As to `CCc1cc(F)c(N)c2c1nc(-c1ccc(P(=O)(O)O)o1)n2CC(C)C` [Compound 12.65, 7-Amino-4-ethyl-6-fluoro-1-isobutyl-2-(2-phosphono-5-furanyl)benzimidazole], the melting point fell in the range of 249 to 250 °C. Regarding `CC(C)Cn1c(-c2ccc(P(=O)(O)O)o2)nc2c(N)c(F)cc(C3CC3)c21` [Compound 12.66, 4-Amino-7-cyclopropyl-5-fluoro-1-isobutyl-2-(2-phosphono-5-furanyl)benzimidazole], the melting point is 250 to 255 °C (dec.).

Take `CC(C)Cn1c(-c2ccc(P(=O)(O)O)o2)nc2c(N)c(F)cc(-c3ccccc3)c21` [Compound 12.67, 4-Amino-7-phenyl-5-fluoro-1-isobutyl-2-(2-phosphono-5-furanyl)benzimidazole]: the melting point is 240 to 241 °C (dec.). Regarding `CC(C)Cn1c(-c2ccc(P(=O)(O)O)o2)nc2c(N)c(F)cc(-c3ccc(F)cc3)c21` [Compound 12.68, 4-Amino-7-p-fluorophenyl-5-fluoro-1-isobutyl-2-(2-phosphono5-furanyl)benzimidazole], the melting point is 239 to 240 °C (dec.). As to `CC(C)Cn1c(-c2ccc(P(=O)(O)O)o2)nc2c(N)c(F)cc(-c3ccc(Cl)cc3)c21` [Compound 12.69, 4-Amino-7-p-chlorophenyl-5-fluoro-1-isobutyl-2-(2-phosphono-5-furanyl)benzimidazole], the melting point is 235 to 236 °C (dec.). As to `C=Cc1cc(F)c(N)c2nc(-c3ccc(P(=O)(O)O)o3)n(CC(C)C)c12` [Compound 12.70, 4-Amino-7-vinyl-5-fluoro-1-isobutyl-2-(2-phosphono-5-furanyl)benzimidazole], the melting point was in the range of 238 to 242 °C. The result for `CCC(CC)Cn1c(-c2ccc(P(=O)(O)O)o2)nc2c(N)c(F)ccc21` [Compound 12.73, 4-Amino-5-fluoro-1-(2-ethylbutyl)-2-(2-phosphono-5-furanyl)benzimidazole] reads 178 to 182 °C (dec.); that for `COc1cccc(-c2cc(F)c(N)c3nc(-c4ccc(P(=O)(O)O)o4)n(CC(C)C)c23)c1` [Compound 12.74, 4-Amino-7-m-methoxyphenyl-5-fluoro-1-isobutyl-2-(2-phosphono-5-furanyl)benzimidazole], 208 to 212 °C (dec.); that for `CCc1cc(F)c(N)c2nc(-c3ccc(P(=O)(O)O)o3)n(CC3CC3)c12` [Compound 12.75, 4-Amino-7-ethyl-5-fluoro-1-cyclopropylmethyl-2-(2-phosphono-5-furanyl)benzimidazole], 178 to 185 °C. For the compound `CCC(CC)n1c(-c2ccc(P(=O)(O)O)o2)nc2c(N)c(F)ccc21` [Compound 12.76, 4-Amino-5-fluoro-1-(3-pentyl)-2-(2-phosphono-5-furanyl)benzimidazole], the melting point is 180 to 185 °C (dec.). As to `CC(C)Cn1c(-c2ccc(P(=O)(O)O)o2)nc2cc(F)c(F)c(F)c21` [Compound 12.77, 5,6,7-Trifluoro-1-isobutyl-2-(2-phosphono-5-furanyl)benzimidazole], the melting point is 250 to 260 °C. Consider `CC(C)Cn1c(-c2ccc(P(=O)(O)O)o2)nc2c(F)c(F)c(F)cc21` [Compound 12.78, 4,5,6-Trifluoro-1-isobutyl-2-(2-phosphono-5-furanyl)benzimidazole], for which the melting point lay in the range of 155 to 158 °C. Consider `CCCc1cc(F)c(N)c2nc(-c3ccc(P(=O)(O)O)o3)n(CC(C)C)c12` [Compound 12.81, 4-Amino-5-fluoro-7-n-propyl-1-isobutyl-2-(2-phosphono-5-furanyl)benzimidazole], for which the melting point is 220 to 230 °C (dec.). Regarding `CC(C)Cn1c(-c2ccc(P(=O)(O)O)o2)nc2c(N)c(F)cc(CCCCCl)c21` [Compound 12.83, 4-Amino-5-fluoro-7-(4-chlorobutyl)-1-isobutyl-2-(2-phosphono-5-furanyl)benzimidazole], the melting point was 210 to 220 °C (dec.). The result for `O=P(O)(O)c1ccc(-c2nc3ccccc3[nH]2)o1` [Compound 13.1, 2-(2-Phosphono-5-furanyl)benzimidazole] reads more than 250 °C; that for `CC(C)Cn1c(-c2ccc(P(=O)(O)O)o2)nc2ccccc21` [Compound 13.2, 1-Isobutyl-2-(2-phosphono-5-furanyl)benzimidazole], 200 to 203 °C; that for `O=P(O)(O)c1ccc(-c2nc3ccccc3n2-c2ccccc2)o1` [Compound 13.12, 1-Phenyl-2-(2-phosphono-5-furanyl)benzimidazole], 196 to 200 °C.

For `O=C(O)c1ccccc1-n1c(-c2ccc(P(=O)(O)O)o2)nc2cc(Cl)ccc21` [Compound 13.13, 1-(2-Carboxyphenyl)-2-(2-phosphono-5-furanyl)-5-chloro benzimidazole], the melting point was in the range of 220 to 224 °C. As for `CC(C)Cn1c(-c2ccc(P(=O)(O)O)o2)nc2cc(Cl)ccc21` [Compound 13.16, 5-Chloro-1-isobutyl-2-(2-phosphono-5-furanyl)benzimidazole], the figure is 238 °C; as for `CC(C)COc1cccc2c1nc(-c1ccc(P(=O)(O)O)o1)n2CC(C)C` [Compound 13.20, 1-Isobutyl-4-isobutyloxy-2-(2-phosphono-5-furanyl)benzimidazole], 350 °C; as for `CC(C)Cn1c(-c2ccc(P(=O)(O)O)o2)nc2ccc(F)cc21` [Compound 13.27, 6-Fluoro-1-isobutyl-2-(2-phosphono-5-furanyl)benzimidazole], 202 to 205 °C. Take `CC(C)n1c(-c2ccc(P(=O)(O)O)o2)nc2cc(Cl)ccc21` [Compound 13.33, 5-Chloro-1-isopropyl-2-(2-phosphono-5-furanyl)benzimidazole]: the melting point lay in the range of 192 to 195 °C.

Turning to `CC(C)Cn1c(-c2ccc(P(=O)(O)O)o2)nc2c(Cl)cc(Cl)cc21` [Compound 13.39, 4,6-Dichloro-1-isobutyl-2-(2-phosphono-5-furanyl)benzimidazole], the melting point fell in the range of 155 to 175 °C.

As for `CC(C)Cn1c(-c2ccc(P(=O)(O)O)o2)nc2c(Br)cc(Br)cc21` [Compound 13.43, 4,6-Dibromo-1-isobutyl-2-(2-phosphono-5-furanyl)benzimidazole], the melting point was in the range of 150 to 210 °C. For `CC(C)Cn1c(-c2ccc(P(=O)(O)O)o2)nc2cc(Cl)c(Cl)cc21` [Compound 13.44, 5,6-Dichloro-1-isobutyl-2-(2-phosphono-5-furanyl)benzimidazole], the melting point fell in the range of 225 to 227 °C.

For `O=P(O)(O)c1ccc(-c2nc3cc(Cl)c(Cl)cc3n2CC2CC2)o1` [Compound 13.45, 5,6-Dichloro-1-cyclopropylmethyl-2-(2-phosphono-5-furanyl)benzimidazole], the melting point is 180 to 210 °C. `CC(C)Cn1c(-c2ccc(P(=O)(O)O)o2)nc2cc(Cl)c(F)cc21` [Compound 13.50, 5-Chloro-6-fluoro-1-isobutyl-2-(2-phosphono-5-furanyl)benzimidazole] displayed a melting point of 196 to 199 °C. For the compound `Cc1c(Br)cc2c(nc(-c3ccc(P(=O)(O)O)o3)n2CC(C)C)c1C` [Compound 13.53, 4,5-Dimethyl-6-bromo-1-isobutyl-2-(2-phosphono-5-furanyl)benzimidazole], the melting point was in the range of 205 to 209 °C.

The compound `Cc1cccc2c1nc(-c1ccc(P(=O)(O)O)o1)n2CC(C)C` [Compound 13.54, 4-Methyl-1-isobutyl-2-(2-phosphono-5-furanyl)benzimidazole] showed a melting point of 208 to 211 °C.
